Laboratory results from paper PMC8725448 (Journal of Cannabis Research, 2022).
Entries after “also recorded” stand apart in the source; their conditions may differ.

How the values were obtained:
[1] = tested on: hyperthermia-induced seizures in Scn1a^+/- mice; assay: Hyperthermia-induced seizures in Scn1a+/- mouse model of Dravet syndrome; assay type: in vivo
Description: Hyperthermia-induced seizure experiments were conducted on male and female Scn1a^+/- mice at P14-16 as previously described (Hawkins et al. [2017]). No significant sex differences were observed so males and females were combined across groups. Briefly, for CBGA methyl ester experimental animals a RET-3 rectal temperature probe was inserted 30 min after i.p. injections of vehicle or CBGA methyl ester. Mice acclimated to the probe for 5 min before hyperthermia protocol began. Olivetolic acid experimental animals acclimated to the rectal temperature probe for 5 min then received an i.p. injection of vehicle or olivetolic acid immediately before the hyperthermia protocol was initiated. Mouse core body temperature was elevated 0.5°C every 2 min until the onset of first clonic convulsion with loss of posture or until 42.5°C was reached. The dose range (10, 30, or 100 mg/kg) was chosen to provide a point of direct comparison to CBGA, which is anticonvulsant at 30 and 100 mg/kg. Seizure threshold temperatures were compared in GraphPad Prism 8.2 (LaJolla, USA) using Mantel-Cox logrank test and p < 0.05 was considered statistically significant. Following the hyperthermia-induced seizure protocol, the plasma samples were isolated as described for the pharmacokinetic analysis from a cohort of experimental mice.

CaV3.1 = biological target: T1, CaV3.1 (Homo sapiens, UniProt O43497); assay: Measurement of intracellular calcium, CaV3.1; assay type: cell-based; conditions: 10 μM; HEK293 cells expressing human CaV3.1
T1 construct: expressed in transfected cells; host or cells: Flp-In T-REx HEK (tetracycline-induced)
T1 sequence (O43497 whole entry): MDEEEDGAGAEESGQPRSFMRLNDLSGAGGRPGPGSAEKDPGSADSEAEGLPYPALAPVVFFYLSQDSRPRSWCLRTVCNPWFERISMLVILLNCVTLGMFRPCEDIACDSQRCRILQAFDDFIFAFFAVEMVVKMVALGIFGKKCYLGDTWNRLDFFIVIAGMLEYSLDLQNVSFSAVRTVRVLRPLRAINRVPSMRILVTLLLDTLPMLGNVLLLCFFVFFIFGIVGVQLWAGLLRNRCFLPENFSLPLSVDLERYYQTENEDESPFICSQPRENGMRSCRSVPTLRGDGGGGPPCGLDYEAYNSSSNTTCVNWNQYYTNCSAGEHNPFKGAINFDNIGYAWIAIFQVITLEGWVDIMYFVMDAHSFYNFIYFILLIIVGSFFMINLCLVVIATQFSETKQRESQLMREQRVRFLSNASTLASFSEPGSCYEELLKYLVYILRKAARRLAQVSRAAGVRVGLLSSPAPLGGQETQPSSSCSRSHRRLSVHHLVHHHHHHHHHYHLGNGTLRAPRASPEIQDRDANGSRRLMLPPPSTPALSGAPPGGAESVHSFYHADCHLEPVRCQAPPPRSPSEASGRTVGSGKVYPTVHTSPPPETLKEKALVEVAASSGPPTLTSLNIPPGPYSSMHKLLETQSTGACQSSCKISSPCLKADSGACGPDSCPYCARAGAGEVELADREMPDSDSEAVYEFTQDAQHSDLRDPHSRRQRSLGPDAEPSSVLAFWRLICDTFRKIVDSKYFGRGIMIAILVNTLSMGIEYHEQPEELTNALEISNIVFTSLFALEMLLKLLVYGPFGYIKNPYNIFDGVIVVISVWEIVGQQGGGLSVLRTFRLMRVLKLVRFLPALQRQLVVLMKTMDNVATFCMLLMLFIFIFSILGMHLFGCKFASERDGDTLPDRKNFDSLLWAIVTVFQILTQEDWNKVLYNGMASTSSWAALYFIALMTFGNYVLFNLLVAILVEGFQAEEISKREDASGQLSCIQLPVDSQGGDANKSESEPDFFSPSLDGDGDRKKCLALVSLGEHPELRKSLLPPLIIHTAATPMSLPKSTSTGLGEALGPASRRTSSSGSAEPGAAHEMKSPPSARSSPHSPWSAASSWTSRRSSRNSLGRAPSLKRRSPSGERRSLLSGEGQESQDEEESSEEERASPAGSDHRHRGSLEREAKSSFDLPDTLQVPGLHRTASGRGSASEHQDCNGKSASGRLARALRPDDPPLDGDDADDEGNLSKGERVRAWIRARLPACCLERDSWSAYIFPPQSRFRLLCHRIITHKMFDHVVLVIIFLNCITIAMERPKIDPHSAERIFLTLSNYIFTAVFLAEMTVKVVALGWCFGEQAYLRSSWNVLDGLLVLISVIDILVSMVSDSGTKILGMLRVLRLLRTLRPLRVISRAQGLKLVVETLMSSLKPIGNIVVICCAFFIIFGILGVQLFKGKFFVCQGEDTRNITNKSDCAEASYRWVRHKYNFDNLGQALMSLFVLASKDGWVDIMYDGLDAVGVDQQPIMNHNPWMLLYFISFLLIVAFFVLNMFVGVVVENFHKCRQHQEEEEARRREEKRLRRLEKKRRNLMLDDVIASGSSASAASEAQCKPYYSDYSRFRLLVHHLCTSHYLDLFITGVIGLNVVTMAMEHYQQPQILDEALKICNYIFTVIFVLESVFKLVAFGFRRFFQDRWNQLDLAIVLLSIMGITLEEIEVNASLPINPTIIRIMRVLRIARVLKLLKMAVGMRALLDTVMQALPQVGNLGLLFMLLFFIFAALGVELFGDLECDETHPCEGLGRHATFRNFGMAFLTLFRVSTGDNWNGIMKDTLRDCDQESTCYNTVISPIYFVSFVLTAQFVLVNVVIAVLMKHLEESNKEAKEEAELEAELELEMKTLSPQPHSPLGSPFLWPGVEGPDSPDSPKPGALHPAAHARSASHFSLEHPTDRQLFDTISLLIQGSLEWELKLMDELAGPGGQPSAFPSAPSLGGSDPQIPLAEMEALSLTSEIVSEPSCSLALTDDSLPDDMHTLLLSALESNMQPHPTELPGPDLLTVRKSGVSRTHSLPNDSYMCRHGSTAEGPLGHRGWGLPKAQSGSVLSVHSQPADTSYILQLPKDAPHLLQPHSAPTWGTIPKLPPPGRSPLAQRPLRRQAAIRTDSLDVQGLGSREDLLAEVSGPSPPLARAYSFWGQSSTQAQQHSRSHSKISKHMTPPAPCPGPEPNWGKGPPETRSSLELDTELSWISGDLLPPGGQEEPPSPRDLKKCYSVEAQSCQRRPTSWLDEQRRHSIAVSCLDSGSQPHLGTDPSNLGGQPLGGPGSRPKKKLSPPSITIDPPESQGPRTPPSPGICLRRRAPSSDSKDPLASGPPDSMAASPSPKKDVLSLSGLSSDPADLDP
Description: (§1) Changes in intracellular calcium concentrations were measured in Flp-In™ T-REx™ HEK stably expressing either CaV3.1, CaV3.2, or CaV3.3 using Calcium 5 dye (Molecular Devices; Sunnyvale, USA) as previously described (Bladen et al. [2021]). Briefly, cells (120,000/well) were plated into a black, clear-bottomed poly-D-lysine coated, 96-well plate in the presence of 2 μg/mL tetracycline to induce channel expression and incubated overnight at 37°C in ambient CO2. Calcium 5 dye was diluted in HEPES-buffered low potassium Hanks Balanced Salt Solution (HBSS) at 50% of manufacturer’s recommendation. Dye solution containing probenecid (2.5 mM) was added and incubated for 60 min at 37°C in ambient CO2. Compounds were prepared as stock solutions in DMSO and diluted in HBSS with 0.01% bovine serum albumin. Compounds were applied for 5 min, then 10 mM CaCl2 was added. A FlexStation 3 Microplate reader (Molecular Devices; San Jose, USA) was used to take fluorescence readings every 2 s (excitation 485 nm, emission 525 nm). Baseline recordings were taken as the average fluorescence over 20 s preceding CaCl2 addition. Changes in fluorescence were measured as the maximal increase in fluorescence from baseline following CaCl2 addition and normalized to the response of vehicle. CaCl2 addition produced no effect in non-induced cells (Supplemental Fig. 2). Final drug concentrations had ≤ 0.1% DMSO. […]

CaV3.3 = biological target: T2, CaV3.3 (Homo sapiens, UniProt Q9P0X4); assay: Measurement of intracellular calcium, CaV3.3; assay type: cell-based; conditions: 10 μM; HEK293 cells expressing human CaV3.3
T2 construct: expressed in transfected cells; host or cells: Flp-In T-REx HEK (tetracycline-induced)
T2 sequence (Q9P0X4 whole entry): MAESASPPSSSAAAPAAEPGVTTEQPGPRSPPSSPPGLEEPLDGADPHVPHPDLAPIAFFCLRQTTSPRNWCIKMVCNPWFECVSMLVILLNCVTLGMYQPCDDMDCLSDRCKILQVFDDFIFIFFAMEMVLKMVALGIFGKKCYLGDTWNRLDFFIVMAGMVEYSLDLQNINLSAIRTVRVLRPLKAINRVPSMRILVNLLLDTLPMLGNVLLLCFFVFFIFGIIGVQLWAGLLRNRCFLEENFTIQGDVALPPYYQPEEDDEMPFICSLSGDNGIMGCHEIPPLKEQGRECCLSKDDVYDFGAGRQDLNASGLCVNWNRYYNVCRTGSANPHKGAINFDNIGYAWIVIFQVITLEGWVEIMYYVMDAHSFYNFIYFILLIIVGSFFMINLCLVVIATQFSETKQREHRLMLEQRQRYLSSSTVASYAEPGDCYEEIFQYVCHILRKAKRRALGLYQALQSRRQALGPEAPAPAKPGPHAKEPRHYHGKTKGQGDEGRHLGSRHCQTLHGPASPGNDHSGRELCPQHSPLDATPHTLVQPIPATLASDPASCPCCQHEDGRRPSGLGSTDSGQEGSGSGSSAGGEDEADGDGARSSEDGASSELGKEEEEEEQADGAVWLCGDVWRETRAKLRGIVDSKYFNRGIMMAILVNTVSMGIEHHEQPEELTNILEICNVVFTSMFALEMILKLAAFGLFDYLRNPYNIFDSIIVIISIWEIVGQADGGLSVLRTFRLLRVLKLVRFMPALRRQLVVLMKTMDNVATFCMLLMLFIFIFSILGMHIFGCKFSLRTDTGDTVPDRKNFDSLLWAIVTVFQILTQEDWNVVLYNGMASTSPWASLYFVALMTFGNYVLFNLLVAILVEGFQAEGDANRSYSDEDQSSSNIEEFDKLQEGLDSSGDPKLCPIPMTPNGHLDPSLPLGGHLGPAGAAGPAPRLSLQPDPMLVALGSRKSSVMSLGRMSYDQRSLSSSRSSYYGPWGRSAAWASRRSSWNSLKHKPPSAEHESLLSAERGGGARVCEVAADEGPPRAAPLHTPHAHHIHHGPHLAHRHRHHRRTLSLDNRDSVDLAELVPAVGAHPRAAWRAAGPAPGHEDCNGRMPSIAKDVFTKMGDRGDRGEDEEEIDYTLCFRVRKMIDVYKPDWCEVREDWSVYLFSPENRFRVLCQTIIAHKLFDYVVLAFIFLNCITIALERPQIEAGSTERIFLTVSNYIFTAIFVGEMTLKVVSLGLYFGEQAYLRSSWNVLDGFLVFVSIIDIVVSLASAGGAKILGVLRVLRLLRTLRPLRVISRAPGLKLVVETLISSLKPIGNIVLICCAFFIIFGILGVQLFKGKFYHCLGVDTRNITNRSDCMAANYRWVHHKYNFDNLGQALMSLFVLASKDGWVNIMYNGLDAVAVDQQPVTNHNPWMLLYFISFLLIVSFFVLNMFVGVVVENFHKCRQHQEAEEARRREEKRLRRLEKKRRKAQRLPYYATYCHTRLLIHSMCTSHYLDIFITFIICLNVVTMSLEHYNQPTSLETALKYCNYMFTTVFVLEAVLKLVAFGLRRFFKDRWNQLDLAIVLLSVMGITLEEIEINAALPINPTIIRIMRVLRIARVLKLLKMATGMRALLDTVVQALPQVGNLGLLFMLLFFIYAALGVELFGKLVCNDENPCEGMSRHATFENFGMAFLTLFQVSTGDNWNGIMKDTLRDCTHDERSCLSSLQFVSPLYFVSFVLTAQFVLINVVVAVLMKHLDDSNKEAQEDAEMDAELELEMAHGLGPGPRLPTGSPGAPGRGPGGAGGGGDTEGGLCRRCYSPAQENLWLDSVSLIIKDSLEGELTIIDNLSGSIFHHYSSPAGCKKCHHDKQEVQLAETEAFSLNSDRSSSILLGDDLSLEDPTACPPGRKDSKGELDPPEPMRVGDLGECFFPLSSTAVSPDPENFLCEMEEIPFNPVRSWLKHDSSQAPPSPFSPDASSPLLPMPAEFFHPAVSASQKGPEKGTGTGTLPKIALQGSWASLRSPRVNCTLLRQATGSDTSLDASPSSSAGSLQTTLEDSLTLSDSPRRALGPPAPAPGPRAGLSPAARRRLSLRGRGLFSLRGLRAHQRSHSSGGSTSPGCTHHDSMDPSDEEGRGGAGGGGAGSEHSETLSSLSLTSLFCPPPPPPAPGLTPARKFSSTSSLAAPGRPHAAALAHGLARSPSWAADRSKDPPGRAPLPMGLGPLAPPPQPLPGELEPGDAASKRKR
Description: as §1

| Compound | increase of GTCS temperature threshold ([1]; 100 mg/kg i.p., Scn1a+/- mice) | anticonvulsant effect (GTCS temperature threshold) ([1]; 100 mg/kg i.p., Scn1a+/- mice P14-16) | inhibition of CaV3.1 (change in intracellular calcium relative to vehicle) (CaV3.1) | inhibition of CaV3.3 (change in intracellular calcium relative to vehicle) (CaV3.3) | effect on hyperthermia-induced seizures ([1]; any dose tested (10, 30, 100 mg/kg i.p.), Scn1a+/- mice P14-16) |
| --- | --- | --- | --- | --- | --- |
| CCCCCc1cc(O)cc(O)c1C(=O)O [Olivetolic acid] | approximately 0.4 °C | modest but significant anticonvulsant effect; also recorded: significantly increased the temperature threshold for GTCS | Neither CBGA methyl ester nor olivetolic acid had any effect; also recorded: ineffective | Neither CBGA methyl ester nor olivetolic acid had any effect; also recorded: ineffective | – |
| CCCCCc1cc(O)c(C/C=C(\C)CCC=C(C)C)c(O)c1C(=O)OC [CBGA methyl ester] | – | – | Neither CBGA methyl ester nor olivetolic acid had any effect; also recorded: no effect | Neither CBGA methyl ester nor olivetolic acid had any effect; also recorded: no effect | no effect; also recorded: ineffective |
